How the values were obtained:
[1] = Overall association constant by fluorescence anisotropy titration, DMPC liposomes; assay type: physicochemical; details: for overall association constant K, DMPC: DMPC (electroneutral, fluid phase), PBS, 37° C.; for bound drug level, DMPC: DMPC liposomes, 0.29M lipid, estimated; for binding affinity for liposomes (ranking): each type of liposome
Experimental: While the spectral changes provide qualitative evidence that the camptothecin drugs bind the liposome membranes, fluorescence anisotropy titration, offers the most sensitive means for quantitatively assessing the extent of the binding. The fluorescence anisotropy titration was performed according to the method of Burke and Tritton, Biochemistry 24: 1768-1776 (1985).
The concentrations of free camptothecin drugs and camptothecin drugs associated with liposomes were determined at various lipid concentrations. All experiments were conducted in glass tubes pretreated with a silating agent, Surfacil, from Pearce Chemical, Rockford, Ill. The titration was conducted at camptothecin drug concentration of 1×10^-6 M in PBS at 37° C. Anisotropy values at each lipid concentration were determined within less than 30 seconds following the addition of the camptothecin drugs to the liposome suspension. The (a) values were determined for fixed drug concentration, typically 2 μM, while the lipid concentration was varied from 0 to 0.29M. By varying the lipid concentration rather than varying the drug concentration, the problem of self-association phenomenon which occurs for camptothecin drugs concentrations in excess of 10 μM is avoided. Also, the well-known phenomenon known as inner filter effect which occurs using fluorescent material at high optical densities is a is avoided.
Adsorption isotherms like those shown in FIGS. 4A and 4B were used to determine overall association constants for the camptothecin drugs. Overall association constants are defined as: […]
where [AB ] represents the concentration of the camptothecin drug bound to the vesicle membrane, [AF ] represents the concentration of free drug, and [L] represents the total lipid concentration in the liposome suspension. This equation is valid when the concentration of free lipid is approximately equal to the concentration of total lipid, that is, the concentration of free lipid is in great excess over the concentration of bound drug. Provided this concentration is satisfied, K may be determined from the inverse of the slope of a double reciprocal plot according to (Burke and Tritton, Biochemistry 24:1776, 1985). In such a plot, 1/bound fraction of the total camptothecin drug is plotted vs. 1/[lipid], with a y-intercept value of 1.
FIG. 6A is the double-reciprocal plot for the associations of CMC, camptothecin, camptothecin carboylate sodium salt and topotecan with DMPC at 37° C.
The stabilization of camptothecin drugs was determined using different lipids. Three types of lipids (and thus 3 types of membranes) were examined: fluid-phase and electroneutral L-α-dimyristoylphosphatidylcholine (DMPC); fluid-phase and negatively-charged L-α-dimyristoylphosphatidylglycerol (DMPG), and solid-phase and electroneutral L-α-distearoylphosphatidylcholine (DSPC). While DMPC and DMPG have identical chain length, the charge on their head groups differ. DMPC and DSPC have identical head groups, but DMPC has acyl chains having 14 carbons per chain, which are four carbons shorter than the DSPC, which has 18 carbons per chain. This difference of 4-carbon chain length results in DMPC being fluid-phase at 37° C. while DSPC is solid-phase. The 7 camptothecin drugs listed in Table III were combined with liposomes containing the above lipids.
FIGS. 4A and 4B show the extent of camptothecin drug binding to liposomes as a function of lipid concentration for DMPC and DMPG liposomes. DMPC liposomes were made as in Example 1, at lipid concentrations from 0 to 0.29M, using CMC, 10-hydroxycamptothecin, 10,11-methylenedioxy-camptothecin, topotecan, camptothecin, and camptothecin carboxylate sodium salt, as shown in FIG. 4B. DMPG liposomes were made as in Example 2, at lipid concentrations from 0 to 0.29M, using 9-chloro-10,11-methylenedioxycamptothecin CMC, 10,11-methylenedioxycamptothecin, camptothecin, and topotecan, 9-aminocamptothecin, as shown in FIG. 4A. […]

[2] = Relative lipophilicity of camptothecin drugs; details: among drugs of Table V
[3] = HPLC assay of lactone ring hydrolysis, free in PBS or associated with liposomes or micelles; assay type: physicochemical
[4] = Excited-state lifetime of camptothecin; assay type: physicochemical; details: for excited state-lifetime: 37° C.
Experimental: The excited state-lifetime values of camptothecin free in solution was measured in PBS, glycerol, and methanol at 37° C. The lifetime values are 4.7 ns, 3.8 ns, and 3.5 ns, respectively. The average excited state-lifetime value of camptothecin when bound to DMPC liposome membrane is 3.7 ns. The measurements indicate that the excited-state lifetime of camptothecin is relatively insensitive to changes in solvent environment or to changes due to relocation of camptothecin from an aqueous environment to the lipid liposome membrane.
The picosecond fluorescence experiment were carried out with a Piridine I cavity dumped dye laser and frequency doubled light […]. The lifetime and correlation time were measured using frequency domain fluorometer operating up 10 GHz (Laczko et al., Rev. Sci. Instrum. 61: 2331, (1990)). The modulated exited light was obtained from the harmonic content of a laser pulse train with a repetition rate of 3.81 MHz and a pulse width of 5 ps. A mode locked […] Antares laser was used to pump the dye laser. The emission was observed through the cut of the filter […] by microchannel photomultiplier. The cross-correlation detection was done outside the photomultiplier tube, according to Laczko et al., Rev, Sci. Instrum. 61: 2331 (1990).

[5] = system: lung, breast, and malignant melanoma; details: background; cited from earlier work

Compound | overall association constant K, DMPC [1] | bound drug level, DMPC [1] | binding affinity for liposomes (ranking) [1] | other results
CCC1(O)C(=O)OCc2c1cc1n(c2=O)Cc2cc3c(Cl)c4c(cc3nc2-1)OCO4 (centres unmarked) [9-chloro-10,11-methylenedioxycamptothecin] | 400 M⁻¹ | 99% | highest binding affinity for each type of liposome | relative lipophilicity [2]: most lipophilic
CCC1(O)C(=O)OCc2c1cc1n(c2=O)Cc2cc3cc4c(cc3nc2-1)OCO4 (centres unmarked) [10,11-methylenedioxycamptothecin] | – | – | intermediate binding affinities | drug not hydrolysed at about 2.5 hours ([3]; SDS micelles, about 2.5 hours): about 75%; t1/2, octylphenolpolyoxyethylene micelles ([3]; octylphenolpolyoxyethylene micelles, PBS pH 7.4): 1.5 h
CCC1(O)C(=O)OCc2c1cc1n(c2=O)Cc2cc3cc(O)ccc3nc2-1 (centres unmarked) [10-hydroxycamptothecin] | 75 M⁻¹ | – | – | –
CC[C@@]1(O)C(=O)OCc2c1cc1n(c2=O)Cc2cc3ccccc3nc2-1 [camptothecin] | – | 97% | intermediate binding affinities | excited state-lifetime ([4]; PBS): 4.7 ns; average excited state-lifetime ([4]; bound to DMPC liposome membrane): 3.7 ns; excited state-lifetime ([4]; glycerol): 3.8 ns; excited state-lifetime ([4]; methanol): 3.5 ns; t1/2 drug DSPC Lip. ([3]; DSPC liposomes, pH 7.4, 37° C.): ~ 100 min.; effectiveness against other experimental cancer types [5]: effective against other experimental cancer types such as lung, breast, and malignant melanoma
CC[C@@]1(O)C(=O)OCc2c1cc1n(c2=O)Cc2cc3c(CN(C)C)c(O)ccc3nc2-1 [topotecan] | 10 M⁻¹ | 74% | lowest binding affinity for liposomes | reduced propensity to bind electroneutral liposome membranes relative to CMC ([1]; DMPC): 40 -fold

Reference: patent publication US5552156A, “Liposomal and micellular stabilization of camptothecin drugs” (Ohio State University, priority 1995, dated 1996)
